The text below walks through data of patent US20260297060A1, “COMPOUNDS FOR THE DEGRADATION OF MUTANT BRAF” (C4 THERAPEUTICS, INC., priority 2023, published 2026).

Data set [1] in a line: Example 8 pharmacokinetics assay for PKPD study (plasma, tumor, liver). Conditions: 10 mg/kg, p.o., single dose; for concentration at 6 h / concentration at 12 h / concentration at 1 h / concentration at 24 h: mouse, po. The data set is classed as in vivo, BALB/c nude mice. The method, then:
For the PK and PD study, agents were administered to BALB/c nude mice bearing A375 human melanoma xenografts tumors. encorafenib, Compound 8, Compound 26, Compound 38, and Compound 39 were dosed p.o. once on day 1. Encorafenib was dosed at 35 mg/kg, Compound 8, Compound 26, Compound 38, and Compound 39 were dosed at 10 mg/kg. This study was non-GLP.
The plasma samples were collected at predetermined time points for PK analysis. For non-termination plasma collection, blood samples were collected into the 1.5 mL Eppendorf tubes containing 3 μL of 0.5 M EDTA-K2. For termination plasma collection, the mice were euthanized at predetermined time points post the treatment and the blood samples were collected into the 1.5 mL Eppendorf tubes containing 15 μL of 0.5 M EDTA-K2. And then the anticoagulant blood samples were centrifuged at 2,500 g at 4° C. for 15 minutes. The plasma samples were separated into 2 aliquots. The 1st was used for PK analysis, and the 2nd served as backup. The samples were stored at −80° C. before bioanalysis.
The tumor samples were collected at predetermined time points for PK and WB analysis. The tumor was dissected out and split into 3 parts. The 1st part was used for PK analysis, the 2nd part was used for WB analysis and the last one served as backup for study. The samples were transferred into pre-labeled tubes and quickly froze in liquid nitrogen within 2 minutes after dissection. The samples were stored at −80° C. before bioanalysis.
Liver samples were collected at predetermined time points for PK analysis. The left lobe of the liver was dissected out and split into 2 parts. The 1st part was used for PK analysis and the 2nd part served as the backup for the study. The samples were transferred into pre-labeled tubes and quickly froze in liquid nitrogen within 2 minutes after dissection. The samples were stored at −80° C. before bioanalysis.
The harvested plasma and liver samples were processed for pharmacokinetics analysis by LC-MS/MS with a concentration range of 0.200~200 ng/mL for encorafenib in plasma and liver homogenate, and 0.100-100 ng/ml in tumor homogenate, 1.00-1000 ng/mL for Compound 8 in plasma and 0.500~500 ng/ml in tumor and liver homogenate, 50.0~50,000 ng/mL for Compound 26 and Compound 38 in plasma, 5.0~5000 ng/ml in liver and 2.00~2000 ng/ml in tumor homogenate, 1.00-1000 ng/mL for Compound 39 in plasma and 0.500~500 ng/mL in liver and tumor homogenate.

The test system of data set [2] is A375 human melanoma xenografts. The experiment in a line: Example 6 efficacy study in A375 human melanoma xenografts (tumor volume, T/C, TGI). The data set is classed as in vivo, BALB/c nude mice. The conditions noted are these: 10 mg/kg, p.o., BID × 21 days; for T/C / TGI / Tumor Size on PG-D21: PG-D21; for Tumor Size on PG-D21 / Tumor volume: Mean ± SEM. How it is done: For efficacy study, compounds were tested in the A375 human melanoma xenografts. Known BRAF inhibitors encorafenib, and dabrafenib were used as positive controls. Encorafenib and dabrafenib were administered to BALB/c nude mice bearing A375 tumors on PG-D1 and dosed PO daily (QD) for 3 weeks. Encorafenib was dosed at 35 mg/kg. Dabrafenib was dosed at 100 mg/kg. Compound 83, Compound 93, Compound 70, and Compound 54 were administered to BALB/c nude mice bearing A375 tumors on PG-DO and dosed PO twice per day (BID) for 3 weeks. Compound 83, Compound 93, Compound 70, and Compound 54 were dosed at 10 mg/kg.
The A375 tumor cells were maintained in vitro in DMEM medium supplemented with […] and 1% Penicillin-Streptomycin at 37° C. in an atmosphere of 5% CO2 in air. The tumor cells were routinely subcultured twice weekly. The cells growing in an exponential growth phase were harvested and counted for tumor inoculation.
Each mouse was inoculated subcutaneously at the right flank with A375 tumor cells (5×10^6) in 0.2 mL of PBS with Matrigel (PBS: Matrigel=1:1) supplemented for tumor development. Animals were grouped for the treatment on day 16 after tumor inoculation when the average tumor volume reached 221 mm^3 for efficacy study and 386 mm^3 for PKPD study. The test articles administration and the animal numbers in each group are shown in the above experimental Tables.
Prior to the onset of drug treatment, mice were measured for tumor size in two dimensions using a caliper, and the tumor volume (mm^3) was calculated using formula V=0.5 a×b^2 where a and b are the long and short diameters of the tumor in mm, respectively. Mice were randomized into different treatment groups based on the tumor volume.
The major endpoint was to see if the tumor growth could be delayed or mice could be cured. The tumor size was then used for calculations of T/C value. The T/C value (in percent) is an indication of antitumor effectiveness; T and C are the mean volumes of the treated and control groups, respectively on specified day.
TGI was calculated for each group using the formula: TGI (%)=[1−(Ti−T0)/(Ci−C0)]×100; Ti is the average tumor volume of a treatment group on a given day, T0 is the average tumor volume of the treatment group on the day of treatment start, Ci is the average tumor volume of the vehicle control group on the same day with Ti, and C0 is the average tumor volume of the vehicle group on the day of treatment start.
Background: A xenograft is tissue or cells of one species grown in another, often human tumour cells in immunodeficient mice.

Read-outs that look alike come from different tables or passages of the source.

As to `CCN(C)S(=O)(=O)Nc1ccc(F)c(Oc2ccc3ncn([C@H]4COC5(CCC(N6CCC(c7cc8c(cc7F)c(N7CCC(=O)NC7=O)nn8C)C(F)(F)C6)CC5)C4)c(=O)c3c2)c1C#N` (single isomer, unassigned) [Compound 39], the “Concentration in Plasma (mean ± SEM)” value in data set [1] (1 h, 60 min) turned out to be 34700 ± 3785 ng/mL; in data set [1] (6 h, 360 min) it was 15700 ± 1358 ng/mL; in data set [1] (12 h, 720 min) it was 3973 ± 202 ng/mL; in data set [1] (24 h, 1440 min) it was 171 ± 20.8 ng/mL. The “Concentration in Tumor (mean ± SEM)” value in data set [1] (1 h, 60 min) was 3423 ± 648 ng/g; in data set [1] (6 h, 360 min) it was 4713 ± 256 ng/g; in data set [1] (12 h, 720 min) it was 1510 ± 43.6 ng/g; in data set [1] (24 h, 1440 min) it was 79.3 ± 25.3 ng/g. The “Concentration in Liver (mean ± SEM)” value in data set [1] (6 h, 360 min) stood at 18200 ± 1735 ng/g; in data set [1] (12 h, 720 min) it was 5610 ± 455 ng/g.

On to `Cn1nc(N2CCC(=O)NC2=O)c2cc(F)c(C3CCC(N4CCC5(CC4)CC(n4cnc6ccc(Oc7c(F)ccc(NS(=O)(=O)C8CCCC8)c7C#N)cc6c4=O)C5)CC3)cc21` (single isomer, unassigned) [Compound 93, N-[2-cyano-3-[3-[7-[4-[3-(2,4-dioxohexahydropyrimidin-1-yl)-5-fluoro-1-methyl-indazol-6-yl]cyclohexyl]-7-azaspiro[3.5]nonan-2-yl]-4-oxo-quinazolin-6-yl]oxy-4-fluoro-phenyl]cyclopentanesulfonamide], for which the T/C – broadly, the ratio of treated to control – in data set [2] came out at 3.3%. For the same compound, the TGI in data set [2] turned out to be 107.4%. Also, the “Tumor Size on PG-D21” value in data set [2] is 73 ± 18 mm^3. Besides, the “Tumor volume” value came out at 221 ± 9 mm^3 in data set [2] (day 0); 133 ± 6 mm^3 in data set [2] (day 4); 97 ± 6 mm^3 in data set [2] (day 7); 69 ± 5 mm^3 in data set [2] (day 11); 59 ± 5 mm^3 in data set [2] (day 14); 52 ± 4 mm^3 in data set [2] (day 18). The “Tumor volume” value in data set [2] (day 21) is reported as 73 ± 18 mm^3.

In the case of `CCN(C)S(=O)(=O)Nc1ccc(F)c(Oc2ccc3ncn([C@H]4COC5(CCN(C6CC7(C6)CN(c6cc8c(cc6F)c(N6CCC(=O)NC6=O)nn8C)C7)CC5)C4)c(=O)c3c2)c1C#N` [Compound 26, (3R)-3-[6-[2-cyano-3-[[ethyl(methyl)sulfamoyl]amino]-6-fluoro-phenoxy]-4-oxo-quinazolin-3-yl]-8-[2-[3-(2,4-dioxohexahydropyrimidin-1-yl)-5-fluoro-1-methyl-indazol-6-yl]-2-azaspiro[3.3]heptan-6-yl]-1-oxa-8-azaspiro[4.5]decane], the concentration at 6 h was 11800 ± 551 ng/g in data set [1] (liver, 6 h, read-out: Concentration in Liver (mean ± SEM)); 20800 ± 2930 ng/mL in data set [1] (plasma, 6 h, read-out: Concentration in Plasma (mean ± SEM)); 3770 ± 478 ng/g in data set [1] (tumor, 6 h, read-out: Concentration in Tumor (mean ± SEM)). The concentration at 12 h turned out to be 3250 ± 601 ng/g in data set [1] (liver, 12 h, read-out: Concentration in Liver (mean ± SEM)); 4600 ± 1140 ng/mL in data set [1] (plasma, 12 h, read-out: Concentration in Plasma (mean ± SEM)); 1400 ± 226 ng/g in data set [1] (tumor, 12 h, read-out: Concentration in Tumor (mean ± SEM)). Also, the concentration at 1 h in data set [1] (plasma, 1 h, read-out: Concentration in Plasma (mean ± SEM)) was determined as 29100 ± 733 ng/mL; in data set [1] (tumor, 1 h, read-out: Concentration in Tumor (mean ± SEM)), 1900 ± 320 ng/g. Moreover, the concentration at 24 h in data set [1] (plasma, 24 h, read-out: Concentration in Plasma (mean ± SEM)) came out at 162 ± 15.3 ng/mL; in data set [1] (tumor, 24 h, read-out: Concentration in Tumor (mean ± SEM)) it was 64.9 ± 19.9 ng/g.

With `CCN(C)S(=O)(=O)Nc1ccc(F)c(Oc2ccc3ncn(C4CC5(CCN(C6CCC(c7cc8c(cc7F)c(N7CCC(=O)NC7=O)nn8C)CC6F)CC5)C4)c(=O)c3c2)c1C#N` (single isomer, unassigned) [Compound 83, 6-[2-cyano-3-[[ethyl(methyl)sulfamoyl]amino]-6-fluoro-phenoxy]-3-[7-[4-[3-(2,4-dioxohexahydropyrimidin-1-yl)-5-fluoro-1-methyl-indazol-6-yl]-2-fluoro-cyclohexyl]-7-azaspiro[3.5]nonan-2-yl]-4-oxo-quinazoline], the T/C in data set [2] was 0.7%. Besides, the TGI in data set [2] was 110.3%. For the same compound, the “Tumor Size on PG-D21” value in data set [2] stood at 15 ± 1 mm^3. In addition, the “Tumor volume” value in data set [2] (day 0) is listed as 221 ± 11 mm^3; in data set [2] (day 4), 89 ± 11 mm^3; in data set [2] (day 7), 62 ± 7 mm^3; in data set [2] (day 11), 39 ± 3 mm^3; in data set [2] (day 14) it was 31 ± 2 mm^3; in data set [2] (day 18), 22 ± 1 mm^3. The “Tumor volume” value in data set [2] (day 21) was found to be 15 ± 1 mm^3.

In turn, `CCN(C)S(=O)(=O)Nc1ccc(F)c(Oc2ccc3ncn([C@H]4COC5(CCN(C6CC(c7cc8c(cc7F)c(N7CCC(=O)NC7=O)nn8C)C6)CC5)C4)c(=O)c3c2)c1C#N` (single isomer, unassigned) [Compound 70] yielded a T/C in data set [2] of 0.9%. Besides, the TGI in data set [2] is 110.1%. The “Tumor Size on PG-D21” value in data set [2] came out at 19 ± 2 mm^3. Besides, the “Tumor volume” value in data set [2] (day 0) is reported as 221 ± 10 mm^3; in data set [2] (day 4), 111 ± 13 mm^3; in data set [2] (day 7), 66 ± 6 mm^3; in data set [2] (day 11), 44 ± 3 mm^3; in data set [2] (day 14), 34 ± 2 mm^3; in data set [2] (day 18), 24 ± 2 mm^3. Besides, the “Tumor volume” value in data set [2] (day 21) was found to be 19 ± 2 mm^3.

Turning to `CCN(C)S(=O)(=O)Nc1ccc(F)c(Oc2ccc3ncc([C@@H]4COC5(CCN(C6CCC(c7cc8c(cc7F)c(N7CCC(=O)NC7=O)nn8C)CC6)CC5)C4)nc3c2)c1C#N` (single isomer, unassigned) [Compound 54], the T/C in data set [2] came out at 4.1%. Also, in data set [2], the TGI was found to be 106.6%. Also, the “Tumor Size on PG-D21” value in data set [2] came out at 90 ± 27 mm^3. The “Tumor volume” value in data set [2] (day 0) is listed as 221 ± 11 mm^3; in data set [2] (day 4) it was 132 ± 13 mm^3; in data set [2] (day 7) it was 90 ± 14 mm^3; in data set [2] (day 11), 65 ± 13 mm^3; in data set [2] (day 14), 57 ± 13 mm^3; in data set [2] (day 18) it was 53 ± 13 mm^3. The “Tumor volume” value in data set [2] (day 21) stood at 90 ± 27 mm^3.
